In US20230293560A1, “METHOD FOR MODULATING THE BLADDER MICROBIOME TO IMPROVE BLADDER HEALTH” (Kimberly-Clark Worldwide, Inc., priority 2020, published 2023):

Assays:
L. crispatus = assay: High throughput assay screening of prebiotics; type: cell-based, Lactobacillus crispatus; parameters: key: ++: if growth and fermentation was equal to or greater than the positive control; +: if growth and fermentation was less than the positive control; +: if weak or no growth or fermentation; +^2: Bacteria demonstrated growth but no fermentation on the prebiotic; settings: 2% w/v prebiotic in API 50 CHL media; for growth and fermentation vs positive control, Lc-4: L. crispatus KC18-1174-1, Vagina; for growth and fermentation vs positive control, Lc-1: L. crispatus ATCC 33820, Culture Collection; for growth and fermentation vs positive control, Lc-2: L. crispatus KC16-7134-3C, Bladder; for growth and fermentation vs positive control, Lc-3: L. crispatus KC18-1173-1, Bladder
Method: (§1) Most of the prebiotic compounds were initially tested in a high throughput assay screening process, described further in the Test Methods section herein, but three prebiotics (as noted in Table 3) were tested using a plate assay screening process as described in the Test Methods section herein. The prebiotics were tested against the commensal bacterial species of Lactobacillus crispatus, Lactobacillus gasseri, and Lactobacillus jensenii and against the pathogenic bacterial species of Streptococcus anginosus and Enterococcus faecalis as shown in Table 2. The bacterial species were taken from different sources, listed as culture collection, bladder, and vagina.
(§2) The results of the assay plate screening of the prebiotic compounds of Table 1 against the bacterial species of Table 2 is documented in Table 3 with the results being described by the following legend: • ++ if growth and fermentation was equal to or greater than the positive control • + if growth and fermentation was less than the positive control • […] if weak or no growth or fermentation • NT if not tested Some codes were not tested based on the use or non-use by the bacteria, as a way to efficiently move through the assay plate screening to the competition assay, described below.
(§3) • 1. Create a 2% w/v stock of prebiotic or positive control (glucose/dextrose) to be tested in API 50 CHL media (Biomerieux, Marcy-I'Étoile, France). API 50 CHL media contains minimal amounts of carbon for growth, and a bromocresol purple as a pH indicator of fermentation. Filter sterilize media with a […]. Store at 4-6° C. until use. • 2. Add 180 μL of media containing the prebiotic to a sterile, flat bottom 96-well microtiter plate (Corning, Corning, NY). • 3. From a freezer stock subculture the bacteria twice into De Man, Rogosa and Sharpe (MRS) broth (BD Difco, Becton Dickinson, Franklin Lakes, NJ), 37° C., stationary, anaerobic, overnight. • 4. From the last subculture, plate onto an MRS agar plate (Teknova, Hollister, CA) and grow 37° C., stationary, anaerobic, overnight. • 5. Create a bacterial suspension by using a sterile tipped swab to transfer colonies of bacteria into a PBS suspension blank to a 0.5 MacFarland (S. anginosus or E. faecalis) or a 1 MacFarland (Lactobacillus species) from the MRS agar plate. • 6. Enumerate the starting culture. • 7. Inoculate the media alone and media containing the prebiotic or positive control with 20 μL of the bacterial suspension. • 8. Place the plate into a spectrophotometer (Molecular Devices, San Jose, CA) and read the plate every 20 minutes for 24-48 hours. Read wavelengths (OD 430, OD 590, and OD 660). A color change to yellow caused by a drop in pH will be read by an increase in the OD430 value and a decrease in the OD590 value and is indicative of bacterial fermentation. An increase in OD660 values is indicative of an increase in turbidity and bacterial growth.

L. gasseri = assay: High throughput assay screening of prebiotics; type: cell-based, Lactobacillus gasseri; parameters: key: ++: if growth and fermentation was equal to or greater than the positive control; +: if growth and fermentation was less than the positive control; +: if weak or no growth or fermentation; +^2: Bacteria demonstrated growth but no fermentation on the prebiotic; settings: 2% w/v prebiotic in API 50 CHL media; for growth and fermentation vs positive control, Lg-1: L. gasseri KC16-7135-1, Bladder; for growth and fermentation vs positive control, Lg-2: L. gasseri KC16-7171-1, Bladder
Method: as §1, §2, §3

E. faecalis = assay: High throughput assay screening of prebiotics; type: cell-based, Enterococcus faecalis; parameters: key: ++: if growth and fermentation was equal to or greater than the positive control; +: if growth and fermentation was less than the positive control; +: if weak or no growth or fermentation; +^2: Bacteria demonstrated growth but no fermentation on the prebiotic; settings: 2% w/v prebiotic in API 50 CHL media; for growth and fermentation vs positive control, Ef-3: E. faecalis KC17-3969-2B, Bladder; for growth and fermentation vs positive control, Ef-4: E. faecalis KC17-4331-3, Bladder; for growth and fermentation vs positive control, Ef-1: E. faecalis ATCC BAA-2128, Culture Collection; for growth and fermentation vs positive control, Ef-2: E. faecalis KC16-7171-3, Bladder
Method: as §1, §2, §3

S. anginosus = assay: High throughput assay screening of prebiotics; type: cell-based, Streptococcus anginosus; parameters: key: ++: if growth and fermentation was equal to or greater than the positive control; +: if growth and fermentation was less than the positive control; +: if weak or no growth or fermentation; +^2: Bacteria demonstrated growth but no fermentation on the prebiotic; settings: 2% w/v prebiotic in API 50 CHL media; for growth and fermentation vs positive control, Sa-2: S. anginosus KC18-1131-3B, Bladder; for growth and fermentation vs positive control, Sa-1: S. anginosus ATCC 33397, Culture Collection
Method: as §1, §2, §3

[1] = system: commensal and pathogenic bacterial species; assay: Prebiotic screening, summary in words across species; type: cell-based; settings: commensal (L. crispatus, L. gasseri, L. jensenii) and pathogenic (S. anginosus, E. faecalis) species
Method: as §1, §2, §3
• 1. An in house bacterial agar was created based on MRS agar (Kaplan and Hutkins, 2000) where the glucose is substituted for the prebiotic to be tested (either dextran MW ˜6,000, alpha-cyclodextrin, glucomannan, or pectin), bromocresol purple was included as a pH indicator. • 2. Bacteria were enumerated on each agar and color changes were recorded. Method for Competition Assay (Modified from “In Vitro Evaluation of Nutrients that Selectively Confer a Competitive Advantage to Lactobacilli” Vongsa et al, Beneficial Microbes 2016) • 1. Create 2% w/v stock of prebiotic or positive control (glucose/dextrose) as described above. • 2. From a freezer stock subculture the bacteria twice into De Man, Rogosa and Sharpe (MRS) broth (BD Difco, Becton Dickinson, Franklin Lakes, NJ), 37° C., stationary, anaerobic, overnight. • 3. From the last subculture, plate onto an MRS agar plate for L. crispatus KC18-1173-1 or blood agar for S. anginosus KC18-1131-3B, grow 37° C., stationary, anaerobic, overnight. • 4. […]

Row | Structure (SMILES) | growth and fermentation vs positive control, Lc-4 (L. crispatus) | growth and fermentation vs positive control, Lg-4 (L. gasseri; L. gasseri KC18-1142-2, Bladder) | growth and fermentation vs positive control, Ef-3 (E. faecalis) | growth and fermentation vs positive control, Ef-4 (E. faecalis) | growth and fermentation vs positive control, Sa-2 (S. anginosus) | overall outcome of the screening of Table 3, in words [1] | growth and fermentation vs positive control, Lc-1 (L. crispatus) | growth and fermentation vs positive control, Lc-2 (L. crispatus) | growth and fermentation vs positive control, Lc-3 (L. crispatus) | growth and fermentation vs positive control, Lg-1 (L. gasseri) | growth and fermentation vs positive control, Lg-2 (L. gasseri) | growth and fermentation vs positive control, Ef-1 (E. faecalis) | growth and fermentation vs positive control, Ef-2 (E. faecalis) | growth and fermentation vs positive control, Sa-1 (S. anginosus)
1 | OC[C@H]1O[C@@H](O[C@@H]2[C@@H](CO)OC(O)(CO)[C@H]2O)[C@H](O)[C@@H](O)[C@H]1O (mixture of isomers) [Lactulose] | ++ | + | +^2 | +^2 | ++ |  |  |  |  |  |  |  |  | 
2 | O=C(O)CC(O)C(=O)O (racemic) [DL-Malic acid, DL-Malic acid (Malate)] |  |  |  |  |  | not able to provide growth for most, if not all, commensal and pathogenic bacterial species |  |  |  |  |  |  |  | 
3 | OC[C@H]1O[C@@H](O)[C@H](O)[C@@H](O)[C@@H]1O [Beta-D-glucose, Beta-D-Glucose] | ++ |  | ++ | ++ | ++ | able to provide growth on the commensal bacterial species, but also provided growth on the pathogenic bacterial species | ++ | ++ | ++ | ++ | ++ | ++ | ++ | ++
4 | CC(=O)N[C@H]1C(O)O[C@H](CO)[C@@H](O)[C@@H]1O (stereo partly shown) [N-Acetylglucosamine] | + |  | ++ | ++ | ++ | able to provide growth on the commensal bacterial species, but also provided growth on the pathogenic bacterial species | ++ | + | ++ | ++ | ++ | ++ | ++ | ++
5 | O=C(CO)[C@@H](O)[C@@H](O)[C@H](O)CO [Tagatose] |  |  | ++ | ++ |  |  |  |  |  |  |  | ++ | ++ | 
6 | OC[C@@H](O)[C@H](O)[C@@H](O)CO [Xylitol] |  |  |  |  |  | not able to provide growth for most, if not all, commensal and pathogenic bacterial species |  |  |  |  |  |  |  | 
